Data from patent US12110295B2, “WD40 repeat domain protein 5 (WDR5) degradation/disruption compounds and methods of use” (Icahn School of Medicine at Mount Sinai, priority 2018, dated 2024).
Entries after “also recorded” stand apart in the source; their conditions may differ.

molecular target: WDR5 (Homo sapiens, UniProt P61964); assay: Screening of putative WDR5 degraders by Western blot in MV4;11 and/or MIAPACA2 cells; format: cell-based; design: After WDR5 degrader treatment, cells were collected and lysed; endogenous in cells; host or cells: MV4;11 and/or MIAPACA2; conditions: summary of screening, FIGS. 6-10
In short: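 MV4;11 (1×10^6/well) or MIAPACA2 (1×10^5/well) cells treated 18 h with compound at paired doses between 0.1 and 10 μM, DMSO as control. Total lysates immunoblotted for WDR5 with vinculin, tubulin or GAPDH loading controls; fluorescent secondary detection.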

Row | Compound | effective degradation of WDR5 in MV4;11 and/or MIAPACA2 cells
1 | C[C@@H]1CN(c2ccc(-c3cc(CN4CCN(CCNC(=O)CCOCCOCCNc5cccc6c5C(=O)N(C5CCC(=O)NC5=O)C6=O)CC4)ccc3F)cc2NC(=O)c2c[nH]c(=O)cc2C(F)(F)F)C[C@H](C)N1C (stereo partly drawn) [XF078-26, N-(5′-((4-(2-(3-(2-(2-((2-(2,6-dioxopiperidin-3-yl)-1,3-dioxoisoindolin-4-yl)amino)ethoxy)ethoxy)propanamido)ethyl)piperazin-1-yl)methyl)-2′-fluoro-4-((3S,5R)-3,4,5-trimethylpiperazin-1-yl)-[1,1′-biphenyl]-3-yl)-6-oxo-4-(trifluoromethyl)-1,6-dihydropyridine-3-carboxamide] | able to effectively degrade WDR5
2 | Cc1ncsc1-c1ccc(CNC(=O)[C@@H]2C[C@@H](O)CN2C(=O)[C@@H](NC(=O)CCCCCCCC(=O)N2CCN(c3ncc(-c4cc(NC(=O)c5ccc(F)cc5C(F)(F)F)c(N5C[C@@H](C)N(C)[C@@H](C)C5)cc4F)cn3)CC2)C(C)(C)C)cc1 [XF078-113, (2S,4R)-1-((S)-2-(9-(4-(5-(2-fluoro-5-(4-fluoro-2-(trifluoromethyl)benzamido)-4-((3S,5R)-3,4,5-trimethylpiperazin-1-yl)phenyl)pyrimidin-2-yl)piperazin-1-yl)-9-oxononanamido)-3,3-dimethylbutanoyl)-4-hydroxy-N-(4-(4-methylthiazol-5-yl)benzyl)pyrrolidine-2-carboxamide] | able to effectively degrade WDR5
3 | Cc1ncsc1-c1ccc(CNC(=O)[C@@H]2C[C@@H](O)CN2C(=O)[C@@H](NC(=O)CCCCCCC(=O)N2CCN(c3ncc(-c4cc(NC(=O)c5ccc(F)cc5C(F)(F)F)c(N5C[C@@H](C)N(C)[C@@H](C)C5)cc4F)cn3)CC2)C(C)(C)C)cc1 [XF078-112, (2S,4R)-1-((S)-2-(8-(4-(5-(2-fluoro-5-(4-fluoro-2-(trifluoromethyl)benzamido)-4-((3S,5R)-3,4,5-trimethylpiperazin-1-yl)phenyl)pyrimidin-2-yl)piperazin-1-yl)-8-oxooctanamido)-3,3-dimethylbutanoyl)-4-hydroxy-N-(4-(4-methylthiazol-5-yl)benzyl)pyrrolidine-2-carboxamide] | able to effectively degrade WDR5
4 | Cc1ncsc1-c1ccc(CNC(=O)[C@@H]2C[C@@H](O)CN2C(=O)[C@@H](NC(=O)COCCOCCNC(=O)CCC(=O)N2CCN(c3ccc(-c4cc(NC(=O)c5c[nH]c(=O)cc5C(F)(F)F)c(N5C[C@@H](C)N(C)[C@@H](C)C5)cc4F)cn3)CC2)C(C)(C)C)cc1 [XF067-142, N-(4-fluoro-5-(6-(4-((S)-3-((2S,4R)-4-hydroxy-2-((4-(4-methylthiazol-5-yl)benzyl)carbamoyl)pyrrolidine-1-carbonyl)-2,2-dimethyl-5,14-dioxo-7,10-dioxa-4,13-diazaheptadecan-17-oyl)piperazin-1-yl)pyridin-3-yl)-2-((3S,5R)-3,4,5-trimethylpiperazin-1-yl)phenyl)-6-oxo-4-(trifluoromethyl)-1,6-dihydropyridine-3-carboxamide] | able to effectively degrade WDR5
5 | Cc1ncsc1-c1ccc(CNC(=O)[C@@H]2C[C@@H](O)CN2C(=O)[C@@H](NC(=O)CCCCCCCCC(=O)N2CC=C(c3cc(NC(=O)c4c[nH]c(=O)cc4C(F)(F)F)c(N4C[C@@H](C)N(C)[C@@H](C)C4)cc3F)CC2)C(C)(C)C)cc1 [XF078-45, N-(4-fluoro-5-(1-(10-(((S)-1-((2S,4R)-4-hydroxy-2-((4-(4-methylthiazol-5-yl)benzyl)carbamoyl)pyrrolidin-1-yl)-3,3-dimethyl-1-oxobutan-2-yl)amino)-10-oxodecanoyl)-1,2,3,6-tetrahydropyridin-4-yl)-2-((3S,5R)-3,4,5-trimethylpiperazin-1-yl)phenyl)-6-oxo-4-(trifluoromethyl)-1,6-dihydropyridine-3-carboxamide] | able to effectively degrade WDR5
6 | Cc1ncsc1-c1ccc(CNC(=O)[C@@H]2C[C@@H](O)CN2C(=O)[C@@H](NC(=O)COCCOCCOCCOCCOCC(=O)NCCN2CCN(Cc3ccc(F)c(-c4ccc(N5C[C@@H](C)N(C)[C@@H](C)C5)c(NC(=O)c5c[nH]c(=O)cc5C(F)(F)F)c4)c3)CC2)C(C)(C)C)cc1 [XF078-8, N^1-(2-(4-((6-fluoro-3′-(6-oxo-4-(trifluoromethyl)-1,6-dihydropyridine-3-carboxamido)-4′-((3S,5R)-3,4,5-trimethylpiperazin-1-yl)-[1,1′-biphenyl]-3-yl)methyl)piperazin-1-yl)ethyl)-N^17-((S)-1-((2S,4R)-4-hydroxy-2-((4-(4-methylthiazol-5-yl)benzyl)carbamoyl)pyrrolidin-1-yl)-3,3-dimethyl-1-oxobutan-2-yl)-3,6,9,12,15-pentaoxaheptadecanediamide] | able to effectively degrade WDR5
7 | Cc1ncsc1-c1ccc(CNC(=O)[C@@H]2C[C@@H](O)CN2C(=O)[C@@H](NC(=O)CCCCCC(=O)N2CCN(Cc3cnc(N4CC=C(c5cc(NC(=O)c6c[nH]c(=O)cc6C(F)(F)F)c(N6C[C@@H](C)N(C)[C@@H](C)C6)cc5F)CC4)nc3)CC2)C(C)(C)C)cc1 [XF078-144, N-(4-fluoro-5-(1-(5-((4-(7-(((S)-1-((2S,4R)-4-hydroxy-2-((4-(4-methylthiazol-5-yl)benzyl)carbamoyl)pyrrolidin-1-yl)-3,3-dimethyl-1-oxobutan-2-yl)amino)-7-oxoheptanoyl)piperazin-1-yl)methyl)pyrimidin-2-yl)-1,2,3,6-tetrahydropyridin-4-yl)-2-((3S,5R)-3,4,5-trimethylpiperazin-1-yl)phenyl)-6-oxo-4-(trifluoromethyl)-1,6-dihydropyridine-3-carboxamide] | able to effectively degrade WDR5

system: MIAPACA2 cells; assay: MTT cell proliferation assay in MIAPACA2 cells; format: cell-based; conditions: 0.01, 0.03, 0.1, 0.5, 1, 5 and 10 μM, 6 days, FIG. 11
Description: Assessment of the cell proliferation effects of WDR5 degraders XF056-132, XF056-173 and XF067-67 in MIAPACA2 cells (FIG. 11). MIAPACA2 cells were treated with DMSO or indicated compounds at 0.01 μM, 0.03 μM, 0.1 μM, 0.5 μM, 1 μM, 5 μM, and 10 μM for 6 days. MTT assay was used for detecting cell proliferation effects.
MIAPACA2 and Hela cells were cultured in DMEM supplemented with 10% FBS and 1% Penicillin/Streptomycin.

Row | Compound | proliferation of MIAPACA2 cells
8 | Cc1ncsc1-c1ccc([C@H](C)NC(=O)[C@@H]2C[C@@H](O)CN2C(=O)[C@@H](NC(=O)CNC(=O)c2ccc(F)c(-c3ccc(N4C[C@@H](C)N(C)[C@@H](C)C4)c(NC(=O)c4c[nH]c(=O)cc4C(F)(F)F)c3)c2)C(C)(C)C)cc1 [XF067-67, N-(2′-fluoro-5′-((2-(((S)-1-((2S,4R)-4-hydroxy-2-(((S)-1-(4-(4-methylthiazol-5-yl)phenyl)ethyl)carbamoyl)pyrrolidin-1-yl)-3,3-dimethyl-1-oxobutan-2-yl)amino)-2-oxoethyl)carbamoyl)-4-((3S,5R)-3,4,5-trimethylpiperazin-1-yl)-[1,1′-biphenyl]-3-yl)-6-oxo-4-(trifluoromethyl)-1,6-dihydropyridine-3-carboxamide] | significantly decreased the cell proliferation; also recorded: significantly reduced the proliferation of MIAPACA2 cells

same assay, conditions: MIAPACA2 cells, 6 days, FIG. 11

Row | Compound | cell killing effect, rank among the 3 compounds
9 | Cc1ncsc1-c1ccc([C@H](C)NC(=O)[C@@H]2C[C@@H](O)CN2C(=O)[C@@H](NC(=O)CNC(=O)c2ccc(F)c(-c3ccc(N4C[C@@H](C)N(C)[C@@H](C)C4)c(NC(=O)c4c[nH]c(=O)cc4C(F)(F)F)c3)c2)C(C)(C)C)cc1 [XF067-67, N-(2′-fluoro-5′-((2-(((S)-1-((2S,4R)-4-hydroxy-2-(((S)-1-(4-(4-methylthiazol-5-yl)phenyl)ethyl)carbamoyl)pyrrolidin-1-yl)-3,3-dimethyl-1-oxobutan-2-yl)amino)-2-oxoethyl)carbamoyl)-4-((3S,5R)-3,4,5-trimethylpiperazin-1-yl)-[1,1′-biphenyl]-3-yl)-6-oxo-4-(trifluoromethyl)-1,6-dihydropyridine-3-carboxamide] | the best cell killing effect among the 3 compounds
